Source: patent US20080009418A1, “Selective Inhibitors” (Alchemia LTD., priority 2004, published 2008)

Tests used:
Mouse urotensin (mUR2) = target: T1, Mouse urotensin (mUR2) (Mus musculus, UniProt Q8VIH9); test: Radioligand binding, mouse urotensin mUR2 membranes, FlashPlate, [125I]-Urotensin II; conditions: compound at 10 μM; [125I]-Urotensin II
T1 construct: purchased Perkin Elmer Biosignal
T1 sequence (Q8VIH9 1-385): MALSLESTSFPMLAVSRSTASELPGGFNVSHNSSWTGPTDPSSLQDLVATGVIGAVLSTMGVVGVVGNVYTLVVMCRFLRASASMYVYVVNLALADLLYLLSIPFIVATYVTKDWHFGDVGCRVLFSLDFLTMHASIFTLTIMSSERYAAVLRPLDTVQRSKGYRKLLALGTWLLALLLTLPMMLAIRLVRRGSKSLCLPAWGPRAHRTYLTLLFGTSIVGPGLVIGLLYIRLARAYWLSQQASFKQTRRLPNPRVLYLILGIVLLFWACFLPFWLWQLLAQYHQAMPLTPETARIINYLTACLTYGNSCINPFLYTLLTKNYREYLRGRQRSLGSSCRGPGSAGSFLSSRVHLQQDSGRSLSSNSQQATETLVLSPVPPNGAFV
Outline: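 Cloned mouse urotensin (mUR2) receptor membranes from Perkin Elmer Biosignal were immobilized in FlashPlate microplates using a proprietary coating. Each well got 19.5 μl buffer, then 0.5 μl of DMSO, reference ligand, or compound. Adding 5 μl of [125I]-Urotensin II, diluted to 5× final concentration in binding buffer, started binding. Plates were sealed with TopSeal-A and incubated 1 hour at room temperature in the dark. Wells were counted for 30 seconds each on a TopCount after a 60-second delay, and percentage inhibition was calculated.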

Human κ-Opioid (KOP) = target: T2, Human κ-Opioid (KOP) (Homo sapiens, UniProt P41145); test: Radioligand binding, human κ-opioid (KOP) membranes, filtration, [3H]-Diprenorphine; conditions: compound at 10 μM; [3H]-Diprenorphine
T2 construct: purchased Perkin Elmer Biosignal
T2 sequence (P41145 whole entry): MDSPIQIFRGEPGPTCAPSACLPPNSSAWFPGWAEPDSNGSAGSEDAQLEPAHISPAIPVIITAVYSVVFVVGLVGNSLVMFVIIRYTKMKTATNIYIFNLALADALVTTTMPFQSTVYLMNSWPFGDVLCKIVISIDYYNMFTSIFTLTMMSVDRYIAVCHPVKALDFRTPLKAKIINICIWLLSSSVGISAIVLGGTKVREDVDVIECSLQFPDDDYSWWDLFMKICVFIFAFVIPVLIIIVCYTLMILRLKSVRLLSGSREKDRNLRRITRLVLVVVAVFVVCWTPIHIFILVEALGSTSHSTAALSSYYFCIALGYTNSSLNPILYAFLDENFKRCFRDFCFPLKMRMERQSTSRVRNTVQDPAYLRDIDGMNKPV
Outline: (§1)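 Percent inhibition of radioligand binding measured on recombinant human membranes: NK1 with [125I]-Substance P, KOP with [3H]-Diprenorphine. Incubation 1 h at room temperature, then harvest onto 0.3% PEI-soaked filters, cold Tris-HCl pH 7.4 washes and scintillation counting; non-specific binding from reference ligand wells.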

Human Melanocortin (MC3) = target: T3, Human Melanocortin (MC3) (Homo sapiens, UniProt P41968); test: Radioligand binding, human melanocortin MC3 membranes, FlashPlate, [125I]-NDP-αMSH; conditions: compound at 10 μM; [125I]-NDP-αMSH
T3 construct: purchased Perkin Elmer Biosignal
T3 sequence (P41968 whole entry): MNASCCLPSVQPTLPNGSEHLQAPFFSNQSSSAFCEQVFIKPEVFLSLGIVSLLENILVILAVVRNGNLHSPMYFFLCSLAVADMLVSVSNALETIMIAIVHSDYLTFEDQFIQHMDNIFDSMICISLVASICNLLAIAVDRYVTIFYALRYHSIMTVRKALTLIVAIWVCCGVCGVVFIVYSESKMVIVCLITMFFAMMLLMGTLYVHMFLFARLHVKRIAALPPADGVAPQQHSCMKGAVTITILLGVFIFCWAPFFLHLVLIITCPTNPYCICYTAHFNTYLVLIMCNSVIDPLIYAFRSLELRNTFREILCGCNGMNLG
Outline: (§2)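 Cloned human receptor membranes were coated onto FlashPlate wells and incubated with radioligand and compound (added from a 0.5 mM DMSO daughter plate) for 1 hour at room temperature in the dark. Scintillation counting gave percent inhibition, with DMSO defining total and reference ligand defining non-specific binding.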

Human μ-opioid (MOP) = target: T4, Human μ-opioid (MOP) (Homo sapiens, UniProt P35372); test: Radioligand binding, human μ-opioid (MOP) membranes, FlashPlate, [3H]-Naloxone; conditions: compound at 10 μM; [3H]-Naloxone
T4 construct: purchased Perkin Elmer Biosignal
T4 sequence (P35372 whole entry): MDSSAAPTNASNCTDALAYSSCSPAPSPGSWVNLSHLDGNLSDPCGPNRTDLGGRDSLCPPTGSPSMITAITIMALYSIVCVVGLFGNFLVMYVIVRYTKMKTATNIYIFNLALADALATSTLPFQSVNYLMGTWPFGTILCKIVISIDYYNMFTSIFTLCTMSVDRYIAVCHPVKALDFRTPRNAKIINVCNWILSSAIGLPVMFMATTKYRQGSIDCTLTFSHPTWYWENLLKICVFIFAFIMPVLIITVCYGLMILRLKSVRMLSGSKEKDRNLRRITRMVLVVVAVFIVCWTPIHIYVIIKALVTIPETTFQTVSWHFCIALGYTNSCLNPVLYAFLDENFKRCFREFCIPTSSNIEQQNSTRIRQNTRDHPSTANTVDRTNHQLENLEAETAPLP
Outline: as §2

Human neurokinin (NK1) = target: T5, Human neurokinin (NK1) (Homo sapiens, UniProt P25103); test: Radioligand binding, human neurokinin NK1 membranes, filtration, [125I]-Substance P; conditions: compound at 10 μM; [125I]-Substance P
T5 construct: purchased Perkin Elmer Biosignal
T5 sequence (P25103 whole entry): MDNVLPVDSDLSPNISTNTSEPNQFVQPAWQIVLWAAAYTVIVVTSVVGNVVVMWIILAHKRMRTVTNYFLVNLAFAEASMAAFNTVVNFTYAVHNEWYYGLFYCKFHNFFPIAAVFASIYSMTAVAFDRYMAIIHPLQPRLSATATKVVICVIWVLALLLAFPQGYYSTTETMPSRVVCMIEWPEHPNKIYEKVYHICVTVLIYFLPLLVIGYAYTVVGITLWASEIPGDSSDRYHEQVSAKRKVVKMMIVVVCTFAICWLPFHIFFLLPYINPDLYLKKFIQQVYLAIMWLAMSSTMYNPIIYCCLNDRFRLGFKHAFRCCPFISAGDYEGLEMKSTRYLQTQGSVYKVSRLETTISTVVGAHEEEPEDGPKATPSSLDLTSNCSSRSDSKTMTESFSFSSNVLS
Outline: as §1

[1] = target: T6, Human neuropeptide Y (NPY-Y1) (Homo sapiens, UniProt P25929); test: Radioligand binding, human neuropeptide Y NPY-Y1 membranes, FlashPlate, [125I]-PYY; conditions: compound at 10 μM; [125I]-PYY
T6 construct: purchased Perkin Elmer Biosignal
T6 sequence (P25929 1-384): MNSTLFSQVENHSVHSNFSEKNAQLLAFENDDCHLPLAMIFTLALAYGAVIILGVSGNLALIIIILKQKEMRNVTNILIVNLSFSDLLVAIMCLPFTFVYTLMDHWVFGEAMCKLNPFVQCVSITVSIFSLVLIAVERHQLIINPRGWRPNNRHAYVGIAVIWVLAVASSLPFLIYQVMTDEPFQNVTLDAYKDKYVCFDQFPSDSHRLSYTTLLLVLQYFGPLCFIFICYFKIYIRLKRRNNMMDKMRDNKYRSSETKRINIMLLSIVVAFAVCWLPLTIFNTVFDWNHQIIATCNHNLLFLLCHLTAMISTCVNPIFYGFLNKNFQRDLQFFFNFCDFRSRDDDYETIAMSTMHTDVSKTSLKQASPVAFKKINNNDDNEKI
Outline: as §2

Human melanocortin (MC5) = target: T7, Human melanocortin (MC5) (Homo sapiens, UniProt P33032); test: Radioligand binding, human melanocortin MC5 membranes, FlashPlate, [125I]-NDP-αMSH; conditions: compound at 10 μM; [125I]-NDP-αMSH
T7 construct: purchased Perkin Elmer Biosignal
T7 sequence (P33032 whole entry): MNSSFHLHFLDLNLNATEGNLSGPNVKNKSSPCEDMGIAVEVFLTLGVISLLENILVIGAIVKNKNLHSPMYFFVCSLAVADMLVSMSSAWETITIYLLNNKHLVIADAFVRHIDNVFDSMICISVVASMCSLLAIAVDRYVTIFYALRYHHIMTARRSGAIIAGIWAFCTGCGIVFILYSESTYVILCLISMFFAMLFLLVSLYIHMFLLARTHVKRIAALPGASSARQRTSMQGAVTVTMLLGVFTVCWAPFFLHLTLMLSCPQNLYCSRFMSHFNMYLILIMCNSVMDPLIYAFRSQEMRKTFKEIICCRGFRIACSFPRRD
Outline: as §2

Human δ-opioid (DOP) = target: T8, Human δ-opioid (DOP) (Homo sapiens, UniProt P41143); test: Radioligand binding, human δ-opioid (DOP) membranes, FlashPlate, [3H]-Bremazocine; conditions: compound at 10 μM; [3H]-Bremazocine
T8 construct: purchased Perkin Elmer Biosignal
T8 sequence (P41143 whole entry): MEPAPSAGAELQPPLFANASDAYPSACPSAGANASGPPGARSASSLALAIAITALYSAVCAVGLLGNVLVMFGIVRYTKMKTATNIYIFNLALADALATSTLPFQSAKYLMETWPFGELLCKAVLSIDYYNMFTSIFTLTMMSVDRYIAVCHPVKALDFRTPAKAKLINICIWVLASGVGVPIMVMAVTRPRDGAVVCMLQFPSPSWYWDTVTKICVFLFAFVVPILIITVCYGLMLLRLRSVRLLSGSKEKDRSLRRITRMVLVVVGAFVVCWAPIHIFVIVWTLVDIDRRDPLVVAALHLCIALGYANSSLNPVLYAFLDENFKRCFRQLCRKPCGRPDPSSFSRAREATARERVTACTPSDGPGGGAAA
Outline: as §2

[2] = target: T9, Human melanin-concentrating hormone (MCH1) (Homo sapiens, UniProt Q99705); test: Radioligand binding, human melanin-concentrating hormone MCH1 membranes, FlashPlate, [125I]-S36057; conditions: compound at 10 μM; [125I]-S36057
T9 construct: purchased Perkin Elmer Biosignal
T9 sequence (Q99705 whole entry): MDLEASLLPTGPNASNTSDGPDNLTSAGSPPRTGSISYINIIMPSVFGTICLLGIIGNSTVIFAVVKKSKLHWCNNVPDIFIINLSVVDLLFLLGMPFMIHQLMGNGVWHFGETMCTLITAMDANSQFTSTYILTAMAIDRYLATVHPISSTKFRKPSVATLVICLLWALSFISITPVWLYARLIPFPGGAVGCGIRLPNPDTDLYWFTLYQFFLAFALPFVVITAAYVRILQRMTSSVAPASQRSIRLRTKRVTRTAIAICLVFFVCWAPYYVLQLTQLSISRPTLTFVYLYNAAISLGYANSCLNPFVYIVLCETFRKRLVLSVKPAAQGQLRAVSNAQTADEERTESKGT
Outline: as §2

Human Melanocortin (MC4) = target: T10, Human Melanocortin (MC4) (Homo sapiens, UniProt P32245); test: Radioligand binding, human melanocortin MC4 membranes, FlashPlate, [125I]-NDP-αMSH; conditions: compound at 10 μM; [125I]-NDP-αMSH
T10 construct: purchased Perkin Elmer Biosignal
T10 sequence (P32245 whole entry): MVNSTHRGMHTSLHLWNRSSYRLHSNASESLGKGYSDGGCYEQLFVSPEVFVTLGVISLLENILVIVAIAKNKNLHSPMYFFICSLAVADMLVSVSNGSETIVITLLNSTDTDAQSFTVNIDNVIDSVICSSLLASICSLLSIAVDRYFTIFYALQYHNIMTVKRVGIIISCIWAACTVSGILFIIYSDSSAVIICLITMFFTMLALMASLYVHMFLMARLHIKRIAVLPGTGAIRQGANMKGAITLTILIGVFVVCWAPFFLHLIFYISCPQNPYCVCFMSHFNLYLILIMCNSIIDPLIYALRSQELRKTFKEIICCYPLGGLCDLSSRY
Outline: as §2

Human opioid (ORL1) = target: T11, Human opioid (ORL1) (Homo sapiens, UniProt P41146); test: Radioligand binding, human opioid ORL1 membranes, FlashPlate, [125I]-Nociceptin; conditions: compound at 10 μM; [125I]-Nociceptin
T11 construct: purchased Perkin Elmer Biosignal
T11 sequence (P41146 whole entry): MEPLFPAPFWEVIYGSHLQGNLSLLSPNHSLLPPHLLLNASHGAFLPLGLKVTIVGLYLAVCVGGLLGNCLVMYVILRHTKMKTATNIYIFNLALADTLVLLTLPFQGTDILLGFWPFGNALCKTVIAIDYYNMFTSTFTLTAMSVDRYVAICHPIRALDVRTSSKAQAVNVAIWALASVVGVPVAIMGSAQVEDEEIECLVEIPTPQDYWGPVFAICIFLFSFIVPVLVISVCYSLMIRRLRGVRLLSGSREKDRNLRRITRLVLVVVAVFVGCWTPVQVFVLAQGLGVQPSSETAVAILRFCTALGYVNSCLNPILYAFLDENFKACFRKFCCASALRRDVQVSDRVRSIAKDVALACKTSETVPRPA
Outline: as §2

Row | Compound | A11: inhibition of radioligand binding, mouse urotensin (mUR2) (Mouse urotensin (mUR2)) | A2: inhibition of radioligand binding, human κ-opioid (KOP) (Human κ-Opioid (KOP)) | A3: inhibition of radioligand binding, human melanocortin (MC3) (Human Melanocortin (MC3)) | A7: inhibition of radioligand binding, human μ-opioid (MOP) (Human μ-opioid (MOP)) | A8: inhibition of radioligand binding, human neurokinin (NK1) (Human neurokinin (NK1)) | A9: inhibition of radioligand binding, human neuropeptide Y (NPY-Y1) [1] | A5: inhibition of radioligand binding, human melanocortin (MC5) (Human melanocortin (MC5)) | A1: inhibition of radioligand binding, human δ-opioid (DOP) (Human δ-opioid (DOP)) | A6: inhibition of radioligand binding, human melanin-concentrating hormone (MCH1) [2] | A4: inhibition of radioligand binding, human melanocortin (MC4) (Human Melanocortin (MC4)) | A10: inhibition of radioligand binding, human opioid (ORL1) (Human opioid (ORL1))
1 | NCCC(=O)NC1C(OCc2ccccc2)OC(COCc2ccc(Cl)cc2)C(O)C1OCc1ccccc1 (stereo not drawn) [compound 371] | − (“−” indicates less than 50% inhibition at 10 μM) | − (“−” indicates less than 50% inhibition at 10 μM) | − (“−” indicates less than 50% inhibition at 10 μM) | − (“−” indicates less than 50% inhibition at 10 μM) | + (“+” indicates greater than 50% inhibition at 10 μM) | − (“−” indicates less than 50% inhibition at 10 μM) | − (“−” indicates less than 50% inhibition at 10 μM) | − (“−” indicates less than 50% inhibition at 10 μM) | − (“−” indicates less than 50% inhibition at 10 μM) | − (“−” indicates less than 50% inhibition at 10 μM) | − (“−” indicates less than 50% inhibition at 10 μM)
2 | COC1C(O)C(COCc2ccc3ccccc3c2)OC(OCc2ccc(Cl)cc2)C1NC(=O)C1CCCN1 (stereo not drawn) [compound 347] | − (“−” indicates less than 50% inhibition at 10 μM) | − (“−” indicates less than 50% inhibition at 10 μM) | − (“−” indicates less than 50% inhibition at 10 μM) | − (“−” indicates less than 50% inhibition at 10 μM) | + (“+” indicates greater than 50% inhibition at 10 μM) | − (“−” indicates less than 50% inhibition at 10 μM) | − (“−” indicates less than 50% inhibition at 10 μM) | − (“−” indicates less than 50% inhibition at 10 μM) | − (“−” indicates less than 50% inhibition at 10 μM) | − (“−” indicates less than 50% inhibition at 10 μM) | − (“−” indicates less than 50% inhibition at 10 μM)
3 | CSC1OC(COCc2ccc(Cl)cc2)C(O)C(OCc2cccc(N)c2)C1NC(=O)c1c[nH]c2ccccc12 (stereo not drawn) [compound 323] | − (“−” indicates less than 50% inhibition at 10 μM) | − (“−” indicates less than 50% inhibition at 10 μM) | − (“−” indicates less than 50% inhibition at 10 μM) | − (“−” indicates less than 50% inhibition at 10 μM) | + (“+” indicates greater than 50% inhibition at 10 μM) | − (“−” indicates less than 50% inhibition at 10 μM) | − (“−” indicates less than 50% inhibition at 10 μM) | − (“−” indicates less than 50% inhibition at 10 μM) | − (“−” indicates less than 50% inhibition at 10 μM) | − (“−” indicates less than 50% inhibition at 10 μM) | − (“−” indicates less than 50% inhibition at 10 μM)
